# In article PMC6271349, “Synthesis and Biological Evaluation of 2-Phenoxyacetamide Analogues, a Novel Class of Potent and Selective Monoamine Oxidase Inhibitors” (Molecules, 2014):
# Like-named read-outs stand apart in the source and are kept apart here.
# Legend:
# Assay type in all cases: biochemical
# [1] = biological target: T1, Human recombinant Monoamine Oxidase A (Homo sapiens, UniProt P21397); experiment: MAOs inhibitory assay (fluorescence-based microplate), MAO-A; conditions: for SI (selectivity index): SI = (IC50 of MAO-B)/(IC50 of MAO-A); for IC50: recombinant enzyme
# T1 construct: purchased Sigma Aldrich M7316
# T1 sequence (P21397 1-527): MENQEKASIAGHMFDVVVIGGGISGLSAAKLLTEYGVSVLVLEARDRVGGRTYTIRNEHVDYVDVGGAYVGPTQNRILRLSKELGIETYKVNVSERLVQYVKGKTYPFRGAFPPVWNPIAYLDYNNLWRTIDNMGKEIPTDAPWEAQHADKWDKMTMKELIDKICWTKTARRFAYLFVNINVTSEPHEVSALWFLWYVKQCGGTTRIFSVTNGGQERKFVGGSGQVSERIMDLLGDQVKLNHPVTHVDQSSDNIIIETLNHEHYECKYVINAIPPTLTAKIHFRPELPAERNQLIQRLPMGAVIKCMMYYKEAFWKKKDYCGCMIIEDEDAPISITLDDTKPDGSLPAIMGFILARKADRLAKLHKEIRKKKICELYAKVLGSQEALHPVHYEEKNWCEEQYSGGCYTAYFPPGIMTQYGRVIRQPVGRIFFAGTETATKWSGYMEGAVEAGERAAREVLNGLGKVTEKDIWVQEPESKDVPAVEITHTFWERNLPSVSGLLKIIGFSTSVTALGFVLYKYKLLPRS
# Method: (§1) All of these compounds were evaluated for their inhibitory abilities towards MAOs. The inhibition activities against MAO-A and MAO-B of the synthesized compounds were investigated by our reported method.
# (§2) Silica gel (100–200 mesh, Qingdao Haiyang Chemical Co., Qingdao, China) was used for flash column chromatography. Analytical thin-layer chromatography was performed with GF254 silica gel. ^1H-NMR spectra were recorded on a Bruker Avance 300 MHz apparatus. HR-ESI-MS and HR-EI analysis were measured on a Bruker micrOTOF-QII and Waters GCT Premier GC-TOF-MS spectrometer, respectively. All chemicals were purchased from the Eastern China Chemical Co (Hangzhou, China). All fluorescent data was recorded on Spectrum M2 (Molecular Device Company). Human recombinant Monoamine Oxidase A (M7316) and B (M7441) (5 mg/mL) were purchased from Sigma Aldrich. Pierce BCA protein assay kit (23227) was purchased from Thermo Scientific.
# (§3) MAO IC50 values were determined using our reported fluorescence-based microplate assay. […] The fluorescent signals were measured at λex 360 nm and λem 460 nm on a Spectrum-M2 spectrofluorometer.
# [2] = biological target: T2, Human recombinant Monoamine Oxidase B (Homo sapiens, UniProt P27338); experiment: MAOs inhibitory assay (fluorescence-based microplate), MAO-B; conditions: recombinant enzyme; inhibitor incubated 37 °C 3 h, borate buffer pH 8.4; mean IC50
# T2 construct: purchased Sigma Aldrich M7441
# T2 sequence (P27338 1-520): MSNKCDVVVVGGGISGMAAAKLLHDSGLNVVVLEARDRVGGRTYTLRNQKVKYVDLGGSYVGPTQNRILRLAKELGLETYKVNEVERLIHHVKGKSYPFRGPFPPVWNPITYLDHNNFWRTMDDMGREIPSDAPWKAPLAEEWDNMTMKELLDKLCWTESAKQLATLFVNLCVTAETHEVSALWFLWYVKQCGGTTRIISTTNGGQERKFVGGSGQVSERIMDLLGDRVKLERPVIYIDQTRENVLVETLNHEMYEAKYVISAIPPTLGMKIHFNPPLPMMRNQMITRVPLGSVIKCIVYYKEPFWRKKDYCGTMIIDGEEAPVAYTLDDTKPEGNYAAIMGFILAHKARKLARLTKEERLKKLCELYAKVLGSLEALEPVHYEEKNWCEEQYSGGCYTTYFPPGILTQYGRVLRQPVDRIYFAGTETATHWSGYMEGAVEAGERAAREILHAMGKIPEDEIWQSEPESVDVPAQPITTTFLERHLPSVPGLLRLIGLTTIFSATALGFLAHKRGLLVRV
# Method: as §1, §2, §3
# [3] = biological target: T3, MAO-A (Homo sapiens, UniProt P21397); experiment: Reversibility of MAO-A inhibition (repeated washing method); conditions: for inhibition at 0.1 µM: inhibitor 100 nM; for reversibility of MAO-A inhibition: repeated washing method
# T3 construct: purchased Sigma Aldrich M7316
# T3 sequence (P21397 1-527): T1 sequence (P21397 1-527)
# Method: (§4) Reversibility of the MAO inhibition with derivatives of acetamides was evaluated by a reported method. […] After incubating for 2 h, an aliquot was stored at 4 °C for the measurement of MAO-A and -B activity. The remaining reaction solution was placed in an Ultrafree-0.5 centrifugal tube with a 30 kDa Biomax membrane (Millipore) and centrifuged at 9000 g for 20 min at 4 °C. The enzyme retained in the membrane was resuspended in a sodium phosphate buffer and centrifuged two successive times. Then, the enzyme retained in the membrane was resuspended in PBS ([…]) and an aliquot of this suspension was used for MAO-A and -B activity measurement. In order to define 100% MAO activity, control experiments were performed simultaneously by replacing the inhibitors with appropriate dilutions of the vehicles. The corresponding values of percent MAO isoforms inhibition (with and without repeated washing) were calculated based on the control experiments.
# [4] = biological target: T4, native MAO-A in SH-SY5Y (neuroblastoma cells) lysate (Homo sapiens, UniProt P21397); experiment: MAO inhibitory activity in SH-SY5Y cell lysate (endogenous MAO-A); conditions: for IC50: SH-SY5Y lysate (only endogenous MAO-A activity), repeated three times; for times more potent in SH-SY5Y lysate relative to HepG2 lysate: ratio of lysate IC50 values (HepG2/SH-SY5Y)
# T4 construct: endogenous in cells; host or cells: SH-SY5Y (neuroblastoma cells) lysate
# T4 sequence (P21397 1-527): T1 sequence (P21397 1-527)
# Method: (§5) Compounds 12, 21, 22, 25 were chosen for comparison due to their excellent inhibitory activities, and the results were shown in Table 2. […] This is most likely due to the instability of imine group in cell lysates.
# as §3
# (§6) Cells were cultured at 37 °C and 5% CO2 in RPMI-1640 media containing 100 units/mL penicillin, 100 μg/mL streptomycin, and 10% FBS. For lysis, cells were resuspended at 5 × 10^7 cells/mL in lysis buffer (42.3 mM PBS, 126 mM NaCl, 1.27 mM MgCl2, 0.85 mM EDTA, 1 mM PMSF, 0.95% Triton X-100, 9.5% glycerol, 4% 25× complete protease inhibitor, pH 7.4). The cells were vortexed to mix and keep on ice for 30 min, and then sonicated to break the cells (180 watts). The cell lysate was then clarified by ultracentrifugation at 4 °C for 30 min at 45,000. Total protein concentration was determined via a Bradford Protein Assay Kit (Bio-Rad) and cell lysates were stored at −80 °C until further use.
# [5] = biological target: T5, MAO-B (Homo sapiens, UniProt P27338); experiment: Reversibility of MAO-B inhibition (repeated washing method); conditions: for inhibition at 0.1 µM: inhibitor 100 nM; for reversibility of MAO-B inhibition: repeated washing method
# T5 construct: purchased Sigma Aldrich M7441
# T5 sequence (P27338 1-520): T2 sequence (P27338 1-520)
# Method: as §4
# [6] = biological target: T6, native MAO-B in HepG2 (human hepatocellular liver carcinoma cell) lysate (Homo sapiens, UniProt P27338); experiment: MAO inhibitory activity in HepG2 cell lysate (endogenous MAO-B); conditions: HepG2 lysate (only endogenous MAO-B activity); repeated three times
# T6 construct: endogenous in cells; host or cells: HepG2 (human hepatocellular liver carcinoma cell) lysate
# T6 sequence (P27338 1-520): T2 sequence (P27338 1-520)
# Method: as §5, §3, §6
# [7] = inhibitor incubated 37 °C 3 h, borate buffer pH 8.4, mean IC50, read-out: IC50 (μM) MAO-A
# [8] = after repeated washing, read-out: MAO-A Inhibiton (%) After Washing
# [9] = before washing, read-out: MAO-A Inhibiton (%) Before Washing
SMILES,SI (selectivity index) [1],"IC50 [1, 7]",IC50 [2],also measured
NC(=O)COc1ccccc1 [Compound 1],11.27,69 µM,778 µM,–
NC(=O)COc1ccc2ccccc2c1 [Compound 2],3.64,149 µM,542 µM,–
NC(=O)COc1ccc(F)cc1 [Compound 3],2.77,92 µM,255 µM,–
NC(=O)COc1ccc(Cl)cc1 [Compound 4],0.41,490 µM,202 µM,–
NC(=O)COc1ccccc1Cl [Compound 5],7.08,98 µM,694 µM,–
NC(=O)COc1ccc(C=O)cc1 [Compound 6],5.13,89 µM,457 µM,–
NC(=O)COc1ccccc1C=O [Compound 7],3.94,142 µM,559 µM,–
Cc1ccc(OCC(N)=O)cc1C [Compound 8],4.73,113 µM,534 µM,–
Cc1ccccc1OCC(N)=O [Compound 9],25.5,26 µM,663 µM,–
Cc1ccc(OCC(N)=O)cc1 [Compound 10],180,3 µM,541 µM,–
COc1ccccc1OCC(N)=O [Compound 11],8.07,96 µM,775 µM,–
"COc1ccc(OCC(N)=O)cc1 [Compound 12, 2-(4-Methoxyphenoxy)acetamide]",245,4 µM,980 µM,"enzyme activity recovered after repeated washing (MAO-A) ([3]; after repeated washing): more than 80%; inhibition at 0.1 µM [3, 8]: 12.5%; inhibition at 0.1 µM [3, 9]: 88.7%; reversibility of MAO-A inhibition [3]: reversible; IC50 [4]: 5.4 µM; enzyme activity recovered after repeated washing (MAO-B) ([5]; after repeated washing): more than 80%; inhibition at 0.1 µM ([5]; after repeated washing, read-out: MAO-B Inhibiton (%) After Washing): 8.6%; inhibition at 0.1 µM ([5]; before washing, read-out: MAO-B Inhibiton (%) Before Washing): 96.9%; reversibility of MAO-B inhibition [5]: reversible"
NC(=O)COc1ccccc1C(=O)O [Compound 13],0.82,217 µM,177 µM,–
COC(=O)c1ccccc1OCC(N)=O [Compound 14],0.91,108 µM,98 µM,–
CC(C)(C)OC(=O)Nc1ccc(OCC(N)=O)cc1 [Compound 15],1.51,196 µM,296 µM,–
CC(=O)Nc1ccc(OCC(N)=O)cc1 [Compound 16],9.07,61 µM,553 µM,–
NC(=O)CSc1ccccc1 [Compound 17],3.87,166 µM,642 µM,–
Cc1ccc(SCC(N)=O)cc1C [Compound 18],–,292 µM,366 µM,–
NC(=O)COc1ccc(C2=NCCN2)cc1 [Compound 19],8.30,61 µM,506 µM,–
NC(=O)COc1ccccc1C1=NCCN1 [Compound 20],3.84,186 µM,714 µM,–
"C#CCN=Cc1ccc(OCC(N)=O)cc1 [Compound 21, 2-(4-((prop-2-ynylimino)methyl)phenoxy)acetamide]",4.22,–,0.076 µM,IC50 [6]: 0.41 µM; IC50 [4]: 0.18 µM; times more potent in SH-SY5Y lysate relative to HepG2 lysate [4]: 2.3 times; IC50 ([1]; read-out: IC50 value (MAO-A)): 0.018 µM
NC(=O)COc1ccc(C=NCc2ccccc2)cc1 [Compound 23],5.99,96 µM,575 µM,–
C#CCN=Cc1ccccc1OCC(N)=O [Compound 25],2.59,0.068 µM,0.176 µM,IC50 [6]: 1.81 µM; IC50 [4]: 0.88 µM; times more potent in SH-SY5Y lysate relative to HepG2 lysate [4]: 2.1 times
"C[C@H](NCc1ccc(OCc2cccc(F)c2)cc1)C(N)=O [Safinamide, reference compound]",–,–,–,"enzyme activity recovered after repeated washing (MAO-A) ([3]; after repeated washing): more than 80%; inhibition at 0.1 µM [3, 8]: 9.8%; inhibition at 0.1 µM [3, 9]: 36.1%; reversibility of MAO-A inhibition [3]: reversible; enzyme activity recovered after repeated washing (MAO-B) ([5]; after repeated washing): more than 80%; reversibility of MAO-B inhibition [5]: reversible"
